# Laboratory results reported in patent US8987320B2, “Solid salt forms of a pyrrole substituted 2-indolinone” (Zoetis LLC, priority 2005, dated 2015).
# Test system: recurrent mast cell tumors
# Assay: Multicenter, placebo-controlled, double blind, randomized study in dogs with recurrent mast cell tumors
# Type: in vivo
# Protocol: Purpose. The effectiveness of Compound I phosphate oral tablets for the treatment of mast cell tumors in client-owned animals that had recurrent measurable disease after surgery was evaluated in a masked, negative controlled study. The study evaluated every-other-day dosing of Compound I phosphate at 3.25 mg free base equivalents (FBE)/kg body weight on disease response using modified (RECIST) criteria of response. The presence or absence of c-kit mutation in mast cell tumors was evaluated as a covariate in this study. For decision-making purposes, the duration of the study was 6 weeks.
# One-hundred-fifty-three (153) dogs were randomized in a ratio of 4:3 into one of two treatment groups: T01 (Placebo in which n=65) and T02 (Compound I phosphate in which n=88). Ten veterinary oncology practices in the United States were selected and enrolled cases. For enrollment, dogs had to have recurrent mast cell tumor (at least one target lesion had to have a minimum longest diameter of 20 mm)±regional lymph node involvement. A maximum of three target lesions (measurable mast cell tumors) and all non-target lesions (all remaining lesions, measurable or un-measurable) were identified at baseline by two evaluators. Efficacy was based on the objective response (complete response or partial response) at the week 6 visit where the mean of the two evaluators sum of the longest diameter of target lesions (Mean Sum LD) was compared to the Baseline Mean Sum LD for calculation of percent reduction or increase. Assessment of non-target lesions was subjective. A complete response (CR) was defined as the disappearance of all target and non-target lesions and the appearance of no new lesions; a partial response (PR) was defined as at least a 30% decrease in the Mean Sum LD of target lesions compared to the Baseline Mean Sum LD and non-progression of non-target lesions and appearance of no new lesions. Tissue samples from the tumor and distant normal skin were collected prior to randomization and submitted for the assessment of c-kit mutation status.
smiles,measurement,setting,value
Cc1[nH]c(/C=C2\C(=O)Nc3ccc(F)cc32)c(C)c1C(=O)NCCN1CCCC1 [Compound I phosphate],animals that experienced progressive disease,"3.25 mg FBE/kg every other day, 6 weeks, 29/86",33.7%
same,objective response rate (complete or partial response),"3.25 mg FBE/kg every other day, oral tablets, week 6, 33/86",38.3%
same,"objective response, dogs positive for the c-kit mutation","T02 group, 12/20",60%
same,"objective response, dogs negative for the c-kit mutation","T02 group, 21/64",32.8%
